US20250082931A1, “Treating Gastric Cancer Using TTFields Combined with XELOX, FOLFOX or the Individual Constituents Thereof” (Novocure GmbH, priority 2019, published 2025)

Legend:
[1] = test system: AGS cells; experiment: Apoptosis analysis by Annexin V / 7AAD staining; format: cell-based; conditions: for AnnV+ 7AAD+ cell fraction / AnnV+ 7AAD− cell fraction / AnnV− 7AAD+ cell fraction / AnnV− 7AAD− cell fraction: 72 h
Method: (§1) After 72 h of treatment the media and the cells were collected, and cytotoxicity was determined by cell counts. Cells (including cells from the media) were stained for Annexin V and 7AAD for apoptosis analysis. For the testing of the clonogenic effect, cells were seeded for colonies.
(§2) Cells were seeded on inovitro dishes and petri dishes 24 h before starting the experiments. Media containing the indicated concentration of each chemotherapy component alone or FOLFOX and control media was added to the cells and the dishes were connected to TTFields (as in SOP-BI-009) or grown in 37° C., 5% CO2 for 72 h. Each treatment included 8 repeats (8 dishes). The media was replaced every 24 h. At the end of the experiment the cells were collected, and cytotoxicity was determined by cell counts, small number of cells were seeded for colonies and the cells (including cells from the media) were stained for Annexin V and 7AAD for apoptosis analysis.
(§3) Apoptotic effect: Average of cell fraction of each marker staining (Annexin V and 7AAD) of at least 5 dishes from each treatment was calculated in Excel software. The averages from these repeats was calculated to averages and is presented in stacked bar graph using GraphPed software.

[2] = test system: AGS cells; experiment: Clonogenic effect (colonies count); format: cell-based; conditions: for colonies count: 72 h
Method: (§4) After 72 h of treatment the media and the cells were collected, and cytotoxicity was determined by cell counts. […] For the testing of the clonogenic effect, cells were seeded for colonies.
(§5) After 6-14 days the colonies were fixed, stained and counted to determine clonogenic effect. The overall effect was calculated by multiplying the cytotoxic effect and the clonogenic effect.
(§6) Clonogenic effect: The colonies from each well were counted using ImageJ software. Average and standard deviation of colony number of at least 5 wells from each treatment were calculated in excel software. The averages from these repeats was calculated to averages and standard errors and is presented as percent from control (no drug treatment) in XY graph of points with error bars using GraphPed software. Significant was determine by 2-way ANOVA followed Multiple comparison using GraphPed software.

[3] = test system: AGS cells
Method: (§7) During the treatment the media of all dishes was replaced every 24 h (“hours”).
(§8) After 72 h of treatment the media and the cells were collected, and cytotoxicity was determined by cell counts.
as §2
(§9) A TTFields generator (Inovitro systems) was used to apply the treatment to the cells.
(§10) Cytotoxic effect: Average and standard deviation of cell number of at least 5 dishes from each treatment was calculated in Excel software. The averages from these repeats was calculated to averages and standard error and is presented as percent from control (no drug treatment) in XY graph of points with error bars using GraphPed software. Significant was determine by 2-way ANOVA followed Multiple comparison using GraphPed software.

[4] = test system: KATO III cells; experiment: Apoptosis analysis by Annexin V / 7AAD staining; format: cell-based; conditions: for AnnV+ 7AAD+ cell fraction / AnnV+ 7AAD− cell fraction / AnnV− 7AAD+ cell fraction / AnnV− 7AAD− cell fraction: 72 h
Method: as §1, §2, §3

[5] = test system: KATO III cells
Method: as §7, §8, §2, §9, §10

[6] = test system: AGS cells; experiment: Overall effect (cytotoxic effect x clonogenic effect); format: cell-based; conditions: 72 h
Method: as §5
(§11) Overall effect: Each colony number was multiply in the percent of cytotoxic effect of its dish and averages and standard deviations of each treatment were calculated in Excel software. […] Significant was determine by 2-way ANOVA followed Multiple comparison using GraphPed software.

[7] = test system: KATO III cells; experiment: Cytotoxic effect by cell count after 72 h, with and without TTFields
Method: as §7, §8, §2, §9, §10

[8] = test system: AGS cells; experiment: as above
Method: as §7, §8, §2, §9, §10

[9] = test system: KATO III cells; experiment: Overall effect (cytotoxic effect x clonogenic effect); conditions: 72 h, one experiment
Method: as §5, §11

[10] = test system: KATO III cells; experiment: Clonogenic effect (colonies count); conditions: for colonies count: 72 h, one experiment;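 for all read-outs here: after treatment, KATO III cells were reseeded and grown 6–14 days, then colonies were fixed, stained and counted, expressed as percent of untreated (no drug) control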
Method: as §4, §5, §6

[11] = 0.2 uM, + TTFields 150 kHz 1.0 V/cm, one experiment
[12] = 0.2 uM, no TTFields, one experiment
[13] = 5 uM, + TTFields 150 kHz 1.0 V/cm, one experiment
[14] = 5 uM, no TTFields, one experiment
[15] = 10 uM, + TTFields 150 kHz 1.0 V/cm, one experiment
[16] = 10 uM, no TTFields, one experiment
[17] = FOLFOX experiment, 5 uM, + TTFields 150 kHz 1.0 V/cm
[18] = FOLFOX experiment, 5 uM, no TTFields
[19] = 1 uM, + TTFields 150 kHz 1.0 V/cm, one experiment
[20] = 1 uM, no TTFields, one experiment
[21] = 2.5 uM, + TTFields 150 kHz 1.6 V/cm, one experiment
[22] = 2.5 uM, no TTFields, one experiment
[23] = 5 uM, + TTFields 150 kHz 1.6 V/cm, one experiment
[24] = 10 uM, + TTFields 150 kHz 1.6 V/cm, one experiment
[25] = FOLFOX experiment, 10 uM, + TTFields 150 kHz 1.6 V/cm
[26] = FOLFOX experiment, 10 uM, no TTFields
[27] = 2.5 uM, + TTFields 150 kHz 1.6 V/cm
[28] = 5 uM, + TTFields 150 kHz 1.6 V/cm
[29] = 10 uM, + TTFields 150 kHz 1.6 V/cm

SMILES: Nc1nc2c(c(=O)[nH]1)N(C=O)C(CNc1ccc(C(=O)N[C@@H](CCC(=O)O)C(=O)O)cc1)CN2 (stereo partly drawn) [Leucovorin]
- AnnV+ 7AAD+ cell fraction [1, 11]: 5.34%
- AnnV+ 7AAD− cell fraction [1, 11]: 4.69%
- AnnV− 7AAD+ cell fraction [1, 11]: 2.18%
- AnnV− 7AAD− cell fraction [1, 11]: 87.79%
- AnnV+ 7AAD+ cell fraction [1, 12]: 2.25%
- AnnV+ 7AAD− cell fraction [1, 12]: 3.42%
- AnnV− 7AAD+ cell fraction [1, 12]: 2.19%
- AnnV− 7AAD− cell fraction [1, 12]: 92.14%
- AnnV+ 7AAD+ cell fraction [1, 13]: 5.55%
- AnnV+ 7AAD− cell fraction [1, 13]: 5.61%
- AnnV− 7AAD+ cell fraction [1, 13]: 3.04%
- AnnV− 7AAD− cell fraction [1, 13]: 85.8%
- AnnV+ 7AAD+ cell fraction [1, 14]: 2.29%
- AnnV+ 7AAD− cell fraction [1, 14]: 4.12%
- AnnV− 7AAD+ cell fraction [1, 14]: 1.02%
- AnnV− 7AAD− cell fraction [1, 14]: 92.57%
- AnnV+ 7AAD+ cell fraction [1, 15]: 3.74%
- AnnV+ 7AAD− cell fraction [1, 15]: 6.27%
- AnnV− 7AAD+ cell fraction [1, 15]: 2.72%
- AnnV− 7AAD− cell fraction [1, 15]: 87.27%
- AnnV+ 7AAD+ cell fraction [1, 16]: 2.84%
- AnnV+ 7AAD− cell fraction [1, 16]: 5.62%
- AnnV− 7AAD+ cell fraction [1, 16]: 1.01%
- AnnV− 7AAD− cell fraction [1, 16]: 90.54%
- AnnV+ 7AAD+ cell fraction [1, 17]: 10.2%
- AnnV+ 7AAD− cell fraction [1, 17]: 6.6%
- AnnV− 7AAD+ cell fraction [1, 17]: 2.4%
- AnnV− 7AAD− cell fraction [1, 17]: 80.7%
- AnnV+ 7AAD+ cell fraction [1, 18]: 4.3%
- AnnV+ 7AAD− cell fraction [1, 18]: 5.3%
- AnnV− 7AAD+ cell fraction [1, 18]: 2.6%
- AnnV− 7AAD− cell fraction [1, 18]: 87.7%
- apoptotic effect of drug alone ([1]; without TTFields): does not show
- colonies count [2, 11]: 70 % from control
- colonies count [2, 12]: 88 % from control
- colonies count [2, 19]: 77 % from control
- colonies count [2, 20]: 87 % from control
- colonies count [2, 13]: 70 % from control
- colonies count [2, 14]: 95 % from control
- colonies count [2, 17]: 69 % from control
- colonies count [2, 18]: 103 % from control
- clonogenic effect of drug alone ([2]; without TTFields): does not show
- cytotoxic effect of drug alone [3]: does not show
- AnnV+ 7AAD+ cell fraction [4, 21]: 18.45%
- AnnV+ 7AAD− cell fraction [4, 21]: 39.43%
- AnnV− 7AAD+ cell fraction [4, 21]: 0.3%
- AnnV− 7AAD− cell fraction [4, 21]: 41.82%
- AnnV+ 7AAD+ cell fraction [4, 22]: 8.51%
- AnnV+ 7AAD− cell fraction [4, 22]: 24.86%
- AnnV− 7AAD+ cell fraction [4, 22]: 0.06%
- AnnV− 7AAD− cell fraction [4, 22]: 66.57%
- AnnV+ 7AAD+ cell fraction [4, 23]: 25.55%
- AnnV+ 7AAD− cell fraction [4, 23]: 36.56%
- AnnV− 7AAD+ cell fraction [4, 23]: 0.2%
- AnnV− 7AAD− cell fraction [4, 23]: 37.69%
- AnnV+ 7AAD+ cell fraction [4, 14]: 9.4%
- AnnV+ 7AAD− cell fraction [4, 14]: 36.5%
- AnnV− 7AAD+ cell fraction [4, 14]: 0.12%
- AnnV− 7AAD− cell fraction [4, 14]: 53.98%
- AnnV+ 7AAD+ cell fraction [4, 24]: 28.48%
- AnnV+ 7AAD− cell fraction [4, 24]: 35.82%
- AnnV− 7AAD+ cell fraction [4, 24]: 0.4%
- AnnV− 7AAD− cell fraction [4, 24]: 35.3%
- AnnV+ 7AAD+ cell fraction [4, 16]: 12.64%
- AnnV+ 7AAD− cell fraction [4, 16]: 39.85%
- AnnV− 7AAD+ cell fraction [4, 16]: 1.01%
- AnnV− 7AAD− cell fraction [4, 16]: 46.5%
- AnnV+ 7AAD+ cell fraction [4, 25]: 33.83%
- AnnV+ 7AAD− cell fraction [4, 25]: 18.24%
- AnnV− 7AAD+ cell fraction [4, 25]: 1.32%
- AnnV− 7AAD− cell fraction [4, 25]: 46.62%
- AnnV+ 7AAD+ cell fraction [4, 26]: 24.39%
- AnnV+ 7AAD− cell fraction [4, 26]: 12.36%
- AnnV− 7AAD+ cell fraction [4, 26]: 0.80%
- AnnV− 7AAD− cell fraction [4, 26]: 62.46%
- apoptotic effect of drug alone ([4]; without TTFields): does not show
- cytotoxic effect of drug alone [5]: does not show
- overall effect (colonies count multiplying the cytotoxic effect) [6, 11]: 42.9 % from control
- overall effect (colonies count multiplying the cytotoxic effect) [6, 12]: 86.6 % from control
- overall effect (colonies count multiplying the cytotoxic effect) [6, 19]: 36.7 % from control
- overall effect (colonies count multiplying the cytotoxic effect) [6, 20]: 89.7 % from control
- overall effect (colonies count multiplying the cytotoxic effect) [6, 13]: 41.7 % from control
- overall effect (colonies count multiplying the cytotoxic effect) [6, 14]: 88.8 % from control
- overall effect (colonies count multiplying the cytotoxic effect) [6, 17]: 41 % from control
- overall effect (colonies count multiplying the cytotoxic effect) [6, 18]: 88 % from control
- cell count [7, 21]: 58 % from control
- cell count [7, 22]: 106 % from control
- cell count [7, 23]: 51 % from control
- cell count [7, 14]: 107 % from control
- cell count [7, 24]: 47 % from control
- cell count [7, 16]: 90 % from control
- cell count ([7]; FOLFOX experiment, 5 uM, + TTFields 150 kHz 1.6 V/cm): 49 % from control
- cell count [7, 18]: 102 % from control
- cell count ([8]; 0.2 uM, + TTFields 150 kHz 1.0 V/cm): 44 % from control
- cell count ([8]; 0.2 uM, no TTFields): 88 % from control
- cell count ([8]; 1 uM, + TTFields 150 kHz 1.0 V/cm): 46.5 % from control
- cell count ([8]; 1 uM, no TTFields): 84 % from control
- cell count ([8]; 5 uM, + TTFields 150 kHz 1.0 V/cm): 45 % from control
- cell count ([8]; 5 uM, no TTFields): 77 % from control
- cell count [8, 17]: 59 % from control
- cell count [8, 18]: 83 % from control
- overall effect (colonies count multiplying the cytotoxic effect) [9, 27]: 32 % from control
- overall effect (colonies count multiplying the cytotoxic effect) ([9]; 2.5 uM, no TTFields): 106 % from control
- overall effect (colonies count multiplying the cytotoxic effect) [9, 28]: 35 % from control
- overall effect (colonies count multiplying the cytotoxic effect) ([9]; 5 uM, no TTFields): 81 % from control
- overall effect (colonies count multiplying the cytotoxic effect) [9, 29]: 27 % from control
- overall effect (colonies count multiplying the cytotoxic effect) ([9]; 10 uM, no TTFields): 78 % from control
- colonies count [10, 27]: 60 % from control
- colonies count ([10]; 2.5 uM, no TTFields): 100 % from control
- colonies count [10, 28]: 68 % from control
- colonies count ([10]; 5 uM, no TTFields): 79 % from control
- colonies count [10, 29]: 62 % from control
- colonies count ([10]; 10 uM, no TTFields): 91 % from control
- clonogenic effect of drug alone ([10]; without TTFields): does not show
